Laboratory results: patent US8592621B2, “Precursor compounds of sweet taste receptor antagonists for the prevention or treatment of disease” (Symrise AG, priority 2009, dated 2013)

What was measured:
[1] = biological target: T1, T1R2/T1R3 receptors (Homo sapiens, UniProt Q7RTX0+Q8TE23); assay: Calcium mobilization (FLIPR) in HEK293TREX cells expressing human TAS1R2/TAS1R3; type: cell-based; details: in the presence of naringin dihydrochalcone; FIG. 3
T1 construct: expressed in transfected cells; TAS1R2 from pCDNA5-FRT, TAS1R3 from pCDNA3-TO (tetracycline-induced), G15-Gi3 from pIRESpuro3
T1 sequence (Q8TE23 20-839): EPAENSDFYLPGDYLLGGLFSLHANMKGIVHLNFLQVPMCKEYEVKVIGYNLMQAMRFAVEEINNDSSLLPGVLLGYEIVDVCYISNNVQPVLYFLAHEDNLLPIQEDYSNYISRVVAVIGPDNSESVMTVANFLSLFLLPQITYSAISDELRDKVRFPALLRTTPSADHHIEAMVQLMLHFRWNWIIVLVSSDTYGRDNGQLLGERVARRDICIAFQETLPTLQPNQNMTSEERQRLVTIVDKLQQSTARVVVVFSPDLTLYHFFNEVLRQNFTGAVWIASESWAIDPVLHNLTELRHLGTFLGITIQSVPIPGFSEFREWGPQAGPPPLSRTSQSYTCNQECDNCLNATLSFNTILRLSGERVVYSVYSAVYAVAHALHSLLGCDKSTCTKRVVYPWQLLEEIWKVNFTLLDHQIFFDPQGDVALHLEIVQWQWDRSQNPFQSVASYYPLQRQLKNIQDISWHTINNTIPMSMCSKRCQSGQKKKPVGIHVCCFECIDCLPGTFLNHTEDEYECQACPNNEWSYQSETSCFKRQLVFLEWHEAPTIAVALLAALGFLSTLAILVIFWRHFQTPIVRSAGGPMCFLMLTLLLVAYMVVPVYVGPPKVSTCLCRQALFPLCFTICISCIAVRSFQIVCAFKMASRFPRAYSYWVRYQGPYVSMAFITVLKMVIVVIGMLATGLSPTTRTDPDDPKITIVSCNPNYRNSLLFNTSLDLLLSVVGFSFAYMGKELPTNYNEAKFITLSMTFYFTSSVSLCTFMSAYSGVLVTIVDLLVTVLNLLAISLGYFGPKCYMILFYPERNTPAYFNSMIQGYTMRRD
T1 sequence (Q7RTX0 21-852): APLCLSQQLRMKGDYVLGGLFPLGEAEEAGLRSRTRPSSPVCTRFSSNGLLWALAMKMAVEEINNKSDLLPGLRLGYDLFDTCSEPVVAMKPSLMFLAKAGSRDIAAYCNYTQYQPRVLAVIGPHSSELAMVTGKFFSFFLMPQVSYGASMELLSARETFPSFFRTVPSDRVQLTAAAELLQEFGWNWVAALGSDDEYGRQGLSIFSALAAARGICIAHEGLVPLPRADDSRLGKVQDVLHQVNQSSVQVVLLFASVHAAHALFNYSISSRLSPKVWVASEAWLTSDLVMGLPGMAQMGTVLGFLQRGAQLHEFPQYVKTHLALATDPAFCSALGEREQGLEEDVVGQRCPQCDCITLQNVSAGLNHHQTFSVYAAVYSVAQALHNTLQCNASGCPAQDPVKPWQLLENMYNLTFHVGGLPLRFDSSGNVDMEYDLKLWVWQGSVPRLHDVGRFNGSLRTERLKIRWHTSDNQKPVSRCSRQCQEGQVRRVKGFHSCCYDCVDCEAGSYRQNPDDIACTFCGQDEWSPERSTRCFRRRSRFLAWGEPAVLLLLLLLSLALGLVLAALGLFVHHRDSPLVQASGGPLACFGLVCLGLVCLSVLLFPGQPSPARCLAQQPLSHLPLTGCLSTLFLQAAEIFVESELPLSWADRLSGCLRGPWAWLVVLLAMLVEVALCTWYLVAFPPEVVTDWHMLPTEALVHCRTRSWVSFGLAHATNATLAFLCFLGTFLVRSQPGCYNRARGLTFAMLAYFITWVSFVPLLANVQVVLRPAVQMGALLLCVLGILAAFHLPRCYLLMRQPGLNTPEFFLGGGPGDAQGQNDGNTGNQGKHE

[2] = system: sweet taste impression of sweet tasting substances; assay: Influence on the sensorial quality of sweet substances (expert panel rating of sweet taste impression); type: in vivo; details: for Sweet taste impression (1-10) Sample (B): scale 1 [not sweet] to 10 [extremely sweet]; for Change in sweet taste impression [%]: sample B vs sample A
Text: In order to quantify the influence of inventive compounds of formula (I) on the sensorial characteristics of various sweet tasting substances, in each case a sample (A) (sweet tasting substance) and a sample (B) (sweet tasting substance+compound of formula (I) or lactisole (as standard)) were sensorially assessed by a group of experts and rated according to their sweet taste impression on a scale of 1 [not sweet] to 10 [extremely sweet]. Then in each case from the average values of the assessments of samples (A) and (B) the change (in %) in the sweet taste impression was calculated.

[3] = biological target: T1, T1R2/T1R3 receptors; assay: Activating or inhibiting effect on T1R2/T1R3 receptors according to concentration (same process as application example 3); type: cell-based; details: FIG. 4
Text: A stable cell line (HEK293TREX) extracted from human embryonic renal cells was manufactured with the help of the plasmid pIRESpuro3, coding for the G protein chimeras G15-Gi3. A further plasmid (pCDNA5-FRT), coding for the human TAS1R2 sequence, was also used. In this way it was possible to integrate the gene in a defined chromosomal region. The human TAS1R3 subunit of the human sweet taste receptor was cloned in pCDNA3-TO. This allowed the induction of the target gene using tetracycline. The stable, transfixed cell line was cultivated in high glucose content DMEM without tetracycline. For the measurements the cells were sown and cultivated (37° C., 5% CO2) in polylysine-coated 96-well titrimetric places (black with transparent bases) until they achieved an 80% confluence. […] The calcium mobilization by receptor stimulation by the test substances was measured in an automated fluorometer (fluorometric imaging plate reader FLIPR, Molecular Devices, Sunnyvale, Calif.). The test substances were measured in a concentration of 1 mmol/l or 0.1 mmol/l in C1 solution. All data were determined in two independent experiments, which were each repeated three times. The calcium signals obtained were corrected for the proportion of the mock cells and (using the formula ΔF/F=(F−F0)/F0) normalized on the starting intensity of the fluorescence prior to addition of the test substances (F0).

[4] = system: sweet taste intensity (in the oral cavity); assay: Taste tests by a sensory panel (sweet taste intensity in the oral cavity); type: in vivo; details: tasting by sensory panel
Text: From this it can be concluded that during the tasting of the compounds of formulas (1) to (4) in the oral cavity no lactisole was released.

[5] = Sucrose 5% + test substance 10 mg/l
[6] = Sucrose 5%, test substance 10 mg/l

## CCCCCCOC(=O)C(C)Oc1ccc(OC)cc1 (stereo not drawn) [Compound of formula (1), 2-(4-methoxyphenoxy)-propanoic acid hexyl ester]
[1]
  Antagonistic effect (inhibition) on the sweet taste receptor: do not themselves demonstrate any antagonistic effect
[2]; Sucrose 5% + test substance 14 mg/l
  Sweet taste impression (1-10) Sample (B): 5.0 ± 1
[2]; Sucrose 5%, test substance 14 mg/l
  Change in sweet taste impression [%]: −10%

## COc1ccc(OC(C)C(=O)OCC(COC(=O)C(C)Oc2ccc(OC)cc2)OC(=O)C(C)Oc2ccc(OC)cc2)cc1 (stereo not drawn) [Compound of formula (2), 2-(4-methoxyphenoxy)propanoic acid-2,3-bis-[2-(4-methoxyphenoxy)-propionyloxy]-propyl ester]
[3]; in the presence of aspartame or sucrose
  Antagonistic effect on the sweet taste receptor: does not demonstrate any antagonistic effect
[3]; in the presence of the compound
  Dose-effect curve for aspartame or saccharose: not altered
[1]
  Antagonistic effect (inhibition) on the sweet taste receptor: do not themselves demonstrate any antagonistic effect
[2]; Naringin dihydrochalcone 50 mg/l + test substance 10 mg/l
  Sweet taste impression (1-10) Sample (B): 5.6 ± 2.1
[2]; Naringin dihydrochalcone 50 mg/l, test substance 10 mg/l
  Change in sweet taste impression [%]: 9%
[2]; [5]
  Sweet taste impression (1-10) Sample (B): 5.6 ± 1.5
[2]; [6]
  Change in sweet taste impression [%]: 3%

## CCCCOC(=O)C(C)Oc1ccc(OC)cc1 (stereo not drawn) [Compound of formula (4), 2-(4-methoxyphenoxy)propanoic acid butyl ester]
[2]; Sucrose 5% + test substance 16 mg/l
  Sweet taste impression (1-10) Sample (B): 5.6 ± 1.5
[2]; Sucrose 5%, test substance 16 mg/l
  Change in sweet taste impression [%]: −5%

## COc1ccc(OC(C)C(=O)O)cc1 (stereo not drawn) [Lactisole, 2-(4-methoxyphenoxy)propanoic acid, reference compound]
[4]
  Influence on the sweet taste intensity (in the oral cavity): clear reduction in the sweet taste intensity
[2]; [5]
  Sweet taste impression (1-10) Sample (B): 4.2 ± 1.4
[2]; [6]
  Change in sweet taste impression [%]: −27%
